Measured values as given in ChEMBL document CHEMBL1201862, “PubChem BioAssay data set” (2004).
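48-hour exposure; five concentrations; linearly interpolated endpoints. Here, GI50 denotes the concentration required for 50% inhibition of growth.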 Activity calls are given as the source filed them. No stated cut-off is given here; in the data, active = GI50 up to about 1.1 µM and inactive = higher.

Columns and labels:
Assay in all cases: NCI tumour cell line growth inhibition, 48 h
A549 = tested on: A549
COLO 205 = tested on: COLO 205
HCT-15 = tested on: HCT-15
HOP-62 = tested on: HOP-62
HT-29 = tested on: HT-29
K562 = tested on: K562
MOLT-4 = tested on: MOLT-4
NCI-H23 = tested on: NCI-H23
OVCAR-4 = tested on: OVCAR-4
OVCAR-5 = tested on: OVCAR-5
RPMI-8226 = tested on: RPMI-8226
SF-539 = tested on: SF-539
SK-MEL-28 = tested on: SK-MEL-28
SK-OV-3 = tested on: SK-OV-3
SN12C = tested on: SN12C
TK-10 = tested on: TK-10
UACC-257 = tested on: UACC-257
UACC-62 = tested on: UACC-62
UO-31 = tested on: UO-31
MDA-MB-435 = tested on: MDA-MB-435

Compound | GI50 (A549) | GI50 (COLO 205) | GI50 (HCT-15) [µM] | GI50 (HOP-62) | GI50 (HT-29) | GI50 (K562) | GI50 (MOLT-4) | GI50 (NCI-H23) | GI50 (OVCAR-4) | GI50 (OVCAR-5) | GI50 (RPMI-8226) | GI50 (SF-539) | GI50 (SK-MEL-28) | GI50 (SK-OV-3) | GI50 (SN12C) | GI50 (TK-10) | GI50 (UACC-257) | GI50 (UACC-62) | GI50 (UO-31) | GI50 (MDA-MB-435)
CC(C)(C)c1ccc(Oc2ccc(C#N)c(C#N)c2)c(C(C)(C)C)c1 | 60.4 µM (inactive) | 28.3 µM (inactive) | 14.4 | > 100 µM (inactive) | 34.3 µM (inactive) | 21.2 µM (inactive) | 17.4 µM (inactive) | 43.6 µM (inactive) | 49.7 µM (inactive) | > 21 µM (inactive) | 17 µM (inactive) | > 93.5 µM (inactive) | 51.5 µM (inactive) | > 100 µM (inactive) | 43 µM (inactive) | > 100 µM (inactive) | 29.4 µM (inactive) | 52.1 µM (inactive) | 32.7 µM (inactive) | –
Cn1c(CCC#N)nc2ccc(Br)cc2c1=O | > 100 µM (inactive) | > 100 µM (inactive) | > 100 | > 100 µM (inactive) | > 100 µM (inactive) | > 100 µM (inactive) | > 100 µM (inactive) | 41.7 µM (inactive) | > 100 µM (inactive) | > 100 µM (inactive) | > 100 µM (inactive) | > 100 µM (inactive) | > 100 µM (inactive) | > 100 µM (inactive) | > 100 µM (inactive) | > 100 µM (inactive) | > 100 µM (inactive) | > 100 µM (inactive) | > 100 µM (inactive) | –
COc1cccc(NC(=O)CC(=O)N2N=C(N(CCC#N)c3ccc(Cl)cc3)CC2c2ccccc2)c1 (configuration not stated) | > 100 µM (inactive) | > 100 µM (inactive) | > 100 | > 100 µM (inactive) | > 100 µM (inactive) | > 100 µM (inactive) | > 100 µM (inactive) | > 100 µM (inactive) | > 100 µM (inactive) | > 100 µM (inactive) | > 100 µM (inactive) | > 100 µM (inactive) | > 100 µM (inactive) | > 100 µM (inactive) | > 100 µM (inactive) | > 100 µM (inactive) | > 100 µM (inactive) | > 100 µM (inactive) | > 100 µM (inactive) | –
CCc1cccc(CC)c1NC(=O)C(=O)Cc1nc2ccccc2o1 | > 100 µM (inactive) | > 100 µM (inactive) | > 100 | > 100 µM (inactive) | > 100 µM (inactive) | > 100 µM (inactive) | > 100 µM (inactive) | > 100 µM (inactive) | > 100 µM (inactive) | > 100 µM (inactive) | > 100 µM (inactive) | > 100 µM (inactive) | > 100 µM (inactive) | > 100 µM (inactive) | > 100 µM (inactive) | > 100 µM (inactive) | > 100 µM (inactive) | > 100 µM (inactive) | > 100 µM (inactive) | –
Cc1cc2c(=O)cc(-c3ccc(C(=O)O)cc3)oc2c(C(N)=O)c1C | > 100 µM (inactive) | > 100 µM (inactive) | > 100 | > 100 µM (inactive) | > 100 µM (inactive) | > 100 µM (inactive) | > 100 µM (inactive) | > 100 µM (inactive) | > 100 µM (inactive) | > 100 µM (inactive) | > 100 µM (inactive) | > 100 µM (inactive) | > 100 µM (inactive) | > 100 µM (inactive) | > 100 µM (inactive) | > 100 µM (inactive) | > 100 µM (inactive) | > 100 µM (inactive) | > 100 µM (inactive) | –
CCCCC(C(=O)CCC(=O)Nc1ccc(Cl)cc1)C(=O)C(C)C (configuration not stated) | > 100 µM (inactive) | > 100 µM (inactive) | > 100 | > 100 µM (inactive) | > 100 µM (inactive) | 25.1 µM (inactive) | > 100 µM (inactive) | > 100 µM (inactive) | > 100 µM (inactive) | > 100 µM (inactive) | > 100 µM (inactive) | > 100 µM (inactive) | > 100 µM (inactive) | > 100 µM (inactive) | > 100 µM (inactive) | > 100 µM (inactive) | > 100 µM (inactive) | 18.2 µM (inactive) | > 100 µM (inactive) | –
CC(C)(C)OC(=O)NCCCCCCC(=O)Cc1ccccc1 | > 100 µM (inactive) | 75.2 µM (inactive) | > 100 | > 100 µM (inactive) | > 100 µM (inactive) | > 100 µM (inactive) | 59 µM (inactive) | > 100 µM (inactive) | > 100 µM (inactive) | > 100 µM (inactive) | > 100 µM (inactive) | – | > 100 µM (inactive) | > 100 µM (inactive) | > 100 µM (inactive) | > 100 µM (inactive) | > 100 µM (inactive) | – | > 100 µM (inactive) | > 100 µM (inactive)
N#CC(/C(=N\NC(N)=S)C(=O)NC1C2CC3CC(C2)CC1C3)c1ccc(Cl)cc1 (configuration not stated) | > 100 µM (inactive) | > 100 µM (inactive) | > 100 | > 100 µM (inactive) | > 100 µM (inactive) | > 100 µM (inactive) | > 100 µM (inactive) | > 100 µM (inactive) | > 100 µM (inactive) | > 100 µM (inactive) | > 100 µM (inactive) | > 100 µM (inactive) | > 100 µM (inactive) | > 100 µM (inactive) | > 100 µM (inactive) | > 100 µM (inactive) | > 100 µM (inactive) | > 100 µM (inactive) | > 100 µM (inactive) | –
CN1[C@@H]2CCCC[C@H]2N(C)P1(=O)C(O)/C=C/c1ccccc1 (some centres not stated) | > 100 µM (inactive) | > 100 µM (inactive) | > 100 | > 100 µM (inactive) | > 100 µM (inactive) | > 100 µM (inactive) | > 100 µM (inactive) | > 100 µM (inactive) | > 100 µM (inactive) | > 100 µM (inactive) | > 100 µM (inactive) | – | > 100 µM (inactive) | > 100 µM (inactive) | > 100 µM (inactive) | > 100 µM (inactive) | > 100 µM (inactive) | > 100 µM (inactive) | > 100 µM (inactive) | > 100 µM (inactive)
O=C1NC(Cc2ccccc2)C(=O)N2CCCC12 (configuration not stated) | > 100 µM (inactive) | > 100 µM (inactive) | > 100 | > 100 µM (inactive) | > 100 µM (inactive) | > 100 µM (inactive) | > 100 µM (inactive) | – | > 100 µM (inactive) | > 100 µM (inactive) | > 100 µM (inactive) | > 100 µM (inactive) | > 100 µM (inactive) | > 100 µM (inactive) | > 100 µM (inactive) | > 100 µM (inactive) | > 100 µM (inactive) | > 100 µM (inactive) | > 100 µM (inactive) | –
O=C1CNC(=O)/C(=C/c2c[nH]c3ccccc23)N1 | > 100 µM (inactive) | – | > 100 | > 100 µM (inactive) | > 100 µM (inactive) | > 100 µM (inactive) | > 100 µM (inactive) | > 100 µM (inactive) | > 100 µM (inactive) | > 100 µM (inactive) | > 100 µM (inactive) | – | > 100 µM (inactive) | > 100 µM (inactive) | > 100 µM (inactive) | > 100 µM (inactive) | > 100 µM (inactive) | > 100 µM (inactive) | > 100 µM (inactive) | > 100 µM (inactive)
Cc1cccc2nc3cccc(C(=O)NCCC[N+](C)(CCCNC(=O)c4cccc5nc6cccc(C)c6nc45)Cc4ccc([N+](=O)[O-])n4C)c3nc12 | 0.348 µM (active) | 3.58 µM (inactive) | 2.4 | 0.809 µM (active) | 0.396 µM (active) | 0.407 µM (active) | 0.377 µM (active) | > 67.1 µM (inactive) | 27.3 µM (inactive) | 6.68 µM (inactive) | 1.33 µM (inactive) | – | 3.94 µM (inactive) | 41.5 µM (inactive) | 0.839 µM (active) | > 100 µM (inactive) | > 31.6 µM (inactive) | 5.4 µM (inactive) | 1.04 µM (active) | > 27 µM (inactive)
COc1cc(/C=C(\C#N)C(=O)c2ccccc2)cc(OC)c1OC | > 100 µM (inactive) | > 100 µM (inactive) | > 100 | > 100 µM (inactive) | > 100 µM (inactive) | > 100 µM (inactive) | > 100 µM (inactive) | > 100 µM (inactive) | > 100 µM (inactive) | > 100 µM (inactive) | > 100 µM (inactive) | > 100 µM (inactive) | > 100 µM (inactive) | > 100 µM (inactive) | > 100 µM (inactive) | > 100 µM (inactive) | > 100 µM (inactive) | > 100 µM (inactive) | > 100 µM (inactive) | –
C[C@H]1NC(=O)C2CCCCN2C(=O)CN(C)C(=O)CNC(=O)C2CCCCN2C(=O)[C@@H](NC(=O)c2nc3ccccc3cc2O)[C@@H](C)NC(=O)C2CCCCN2C(=O)CN(C)C(=O)CNC(=O)[C@@H]2CCCCN2C(=O)C1NC(=O)c1nc2ccccc2cc1O (some centres not stated) | 0.318 µM (active) | 0.252 µM (active) | 2.75 | 0.251 µM (active) | 0.347 µM (active) | 0.231 µM (active) | 2.59 µM (inactive) | 0.242 µM (active) | 0.389 µM (active) | 1.91 µM (inactive) | 0.274 µM (active) | 0.201 µM (active) | 0.212 µM (active) | 0.482 µM (active) | 0.313 µM (active) | 0.525 µM (active) | 0.185 µM (active) | 0.0229 µM (active) | 0.25 µM (active) | –
CN1CCN(c2ncc3c(n2)sc2c(=O)n(-c4ccccc4)cnc23)CC1 | > 100 µM (inactive) | > 100 µM (inactive) | > 100 | > 100 µM (inactive) | > 100 µM (inactive) | > 100 µM (inactive) | > 100 µM (inactive) | > 100 µM (inactive) | > 100 µM (inactive) | > 100 µM (inactive) | > 100 µM (inactive) | – | > 100 µM (inactive) | > 100 µM (inactive) | > 100 µM (inactive) | > 100 µM (inactive) | > 100 µM (inactive) | > 100 µM (inactive) | > 100 µM (inactive) | > 100 µM (inactive)
